Data published in the NIST ThermoML archive (doi:10.1021/je060082s).
“And” between values parts separate entries of the source, which are not always exact repeats. Identical values can stand only once. ± gives the expanded uncertainty stated by the source.

Settings: Liquid; for mass density: 101.33 kPa, Vibrating tube method

CCCCCCCC[n+]1ccn(C)c1.F[B-](F)(F)F [1-methyl-3-octylimidazolium tetrafluoroborate]
Settings	mass density [kg/m3]
273.1 K	1120.96 ± 3
278.1 K	1117.48 ± 2.9
283.1 K	1114.01 ± 2.9
288.15 K	1110.55 ± 2.9
293.15 K	1107.11 ± 2.9
298.15 K	1103.68 ± 2.9
303.15 K	1100.24 ± 2.9
313.15 K	1093.37 ± 2.9
323.15 K	1086.56 ± 2.9
333.15 K	1079.83 ± 2.8
343.15 K	1073.18 ± 2.8
353.15 K	1066.6 ± 2.8
363.15 K	1060.08 ± 2.8

Settings	viscosity
273.15 K, 100 kPa	2291 ± 57 mPa·s and 2289 ± 57 mPa·s
278.15 K, 100 kPa	1477 ± 37 mPa·s and 1478 ± 37 mPa·s
283.15 K, 100 kPa	982 ± 25 mPa·s
288.15 K, 100 kPa	673 ± 17 mPa·s
293.15 K, 100 kPa	473 ± 12 mPa·s
298.15 K, 100 kPa	341 ± 9 mPa·s
298.15 K, 11200 kPa	393 ± 10 mPa·s
298.15 K, 26200 kPa	475.7 ± 12 mPa·s
298.15 K, 50500 kPa	638.3 ± 16 mPa·s
298.15 K, 51500 kPa	645.9 ± 16 mPa·s
298.15 K, 60800 kPa	720.1 ± 18 mPa·s
298.15 K, 80200 kPa	902.3 ± 23 mPa·s
298.15 K, 100200 kPa	1130 ± 28 mPa·s
298.15 K, 116700 kPa	1359 ± 34 mPa·s
298.15 K, 117500 kPa	1371 ± 34 mPa·s
303.15 K, 100 kPa	251 ± 7 mPa·s
308.15 K, 100 kPa	188.4 ± 5.1 mPa·s [middle of 5 runs]
308.15 K, 800 kPa	190.1 ± 5.2 mPa·s
308.15 K, 2900 kPa	194.9 ± 5.3 mPa·s
308.15 K, 5600 kPa	204.3 ± 5.5 mPa·s
308.15 K, 10900 kPa	214.2 ± 5.7 mPa·s
308.15 K, 26000 kPa	255.1 ± 6.7 mPa·s
308.15 K, 50700 kPa	337.1 ± 8.7 mPa·s
308.15 K, 76200 kPa	444 ± 11 mPa·s
308.15 K, 100300 kPa	571.1 ± 14 mPa·s
308.15 K, 124400 kPa	731.7 ± 18 mPa·s
308.15 K, 150200 kPa	945.5 ± 24 mPa·s
308.15 K, 200100 kPa	1527 ± 38 mPa·s
313.15 K, 100 kPa	144.1 ± 4.1 mPa·s
323.15 K, 100 kPa	88.8 ± 3 mPa·s and 88.7 ± 3 mPa·s
323.15 K, 700 kPa	89.2 ± 3 mPa·s
323.15 K, 4900 kPa	93.5 ± 3.1 mPa·s
323.15 K, 10500 kPa	99.3 ± 3.2 mPa·s
323.15 K, 25800 kPa	118.2 ± 3.6 mPa·s
323.15 K, 50800 kPa	150.1 ± 4.3 mPa·s
323.15 K, 75700 kPa	191.2 ± 5.2 mPa·s
323.15 K, 100600 kPa	241.8 ± 6.4 mPa·s
323.15 K, 125500 kPa	303.1 ± 7.8 mPa·s
323.15 K, 149900 kPa	376.5 ± 9.6 mPa·s
323.15 K, 175500 kPa	469.8 ± 12 mPa·s
323.15 K, 199800 kPa	577.3 ± 15 mPa·s
333.15 K, 100 kPa	57.8 ± 2.5 mPa·s
333.15 K, 10800 kPa	64.4 ± 2.6 mPa·s
333.15 K, 25700 kPa	74.6 ± 2.7 mPa·s
333.15 K, 50300 kPa	94.3 ± 3.1 mPa·s
333.15 K, 75600 kPa	118.7 ± 3.6 mPa·s
333.15 K, 100500 kPa	147.7 ± 4.2 mPa·s
333.15 K, 125300 kPa	182.5 ± 5 mPa·s
333.15 K, 150200 kPa	224.3 ± 6 mPa·s
333.15 K, 175100 kPa	274.4 ± 7.1 mPa·s
333.15 K, 200000 kPa	334.1 ± 8.6 mPa·s
343.15 K, 100 kPa	39.4 ± 2.2 mPa·s
348.15 K, 100 kPa	32.8 ± 2.2 mPa·s
348.15 K, 300 kPa	32.7 ± 2.2 mPa·s
348.15 K, 1600 kPa	33.2 ± 2.2 mPa·s
348.15 K, 3100 kPa	33.7 ± 2.2 mPa·s
348.15 K, 5400 kPa	34.4 ± 2.2 mPa·s
348.15 K, 10200 kPa	36 ± 2.2 mPa·s
348.15 K, 25600 kPa	41.4 ± 2.3 mPa·s
348.15 K, 50300 kPa	51.5 ± 2.4 mPa·s
348.15 K, 75600 kPa	63.6 ± 2.6 mPa·s
348.15 K, 100500 kPa	77.7 ± 2.8 mPa·s
348.15 K, 125400 kPa	94.3 ± 3.1 mPa·s
348.15 K, 150400 kPa	114.3 ± 3.5 mPa·s
348.15 K, 175300 kPa	136.8 ± 4 mPa·s
348.15 K, 200200 kPa	163.6 ± 4.6 mPa·s
348.15 K, 224200 kPa	193.7 ± 5.2 mPa·s
353.15 K, 100 kPa	28.1 ± 2.1 mPa·s

CCCCCCCC[n+]1ccn(C)c1.F[P-](F)(F)(F)(F)F [1-octyl-3-methylimidazolium hexafluorophosphate]
Settings	mass density
273.1 K	1256.13 ± 3.3 kg/m3
278.1 K	1252.25 ± 3.3 kg/m3
283.1 K	1248.38 ± 3.3 kg/m3
288.15 K	1244.52 ± 3.3 kg/m3
293.15 K	1240.68 ± 3.3 kg/m3
298.15 K	1236.84 ± 3.3 kg/m3 and 1236.75 ± 3.3 kg/m3
303.15 K	1233.01 ± 3.2 kg/m3
313.15 K	1225.34 ± 3.2 kg/m3
323.15 K	1217.7 ± 3.2 kg/m3 and 1217.68 ± 3.2 kg/m3
333.15 K	1210.29 ± 3.2 kg/m3
343.15 K	1202.88 ± 3.2 kg/m3
353.15 K	1195.49 ± 3.1 kg/m3
363.15 K	1188.13 ± 3.1 kg/m3

Settings	viscosity
273.15 K, 100 kPa	6410 ± 160 mPa·s
278.15 K, 100 kPa	3889 ± 97 mPa·s
283.15 K, 100 kPa	2439 ± 61 mPa·s
293.15 K, 100 kPa	1065 ± 27 mPa·s
298.15 K, 100 kPa	734.4 ± 18 mPa·s and 731.6 ± 18 mPa·s
298.15 K, 10200 kPa	853.7 ± 21 mPa·s
298.15 K, 24600 kPa	1041 ± 26 mPa·s
298.15 K, 39900 kPa	1299 ± 33 mPa·s
303.15 K, 100 kPa	519.3 ± 13 mPa·s
308.15 K, 100 kPa	374.6 ± 9.6 mPa·s and 370.9 ± 9.5 mPa·s
308.15 K, 5500 kPa	404.3 ± 10 mPa·s
308.15 K, 9900 kPa	430.2 ± 11 mPa·s
308.15 K, 25600 kPa	531.2 ± 13 mPa·s
308.15 K, 48400 kPa	716.3 ± 18 mPa·s
308.15 K, 74900 kPa	1008 ± 25 mPa·s
313.15 K, 100 kPa	276.8 ± 7.2 mPa·s
323.15 K, 100 kPa	158 ± 4.5 mPa·s and 159 ± 4.5 mPa·s and 159.2 ± 4.5 mPa·s
323.15 K, 24800 kPa	217.5 ± 5.8 mPa·s
323.15 K, 26300 kPa	222 ± 5.9 mPa·s
323.15 K, 49900 kPa	295 ± 7.7 mPa·s
323.15 K, 60500 kPa	348.9 ± 9 mPa·s
323.15 K, 74800 kPa	395 ± 10 mPa·s
323.15 K, 76000 kPa	404.2 ± 10 mPa·s
323.15 K, 99700 kPa	524.6 ± 13 mPa·s
333.15 K, 100 kPa	97 ± 3.2 mPa·s and 97.9 ± 3.2 mPa·s and 97.8 ± 3.2 mPa·s
333.15 K, 13500 kPa	115.2 ± 3.5 mPa·s
333.15 K, 30300 kPa	140.6 ± 4 mPa·s
333.15 K, 50400 kPa	176.2 ± 4.8 mPa·s
333.15 K, 75100 kPa	230.4 ± 6.1 mPa·s
333.15 K, 100400 kPa	300.7 ± 7.8 mPa·s
333.15 K, 125200 kPa	387.3 ± 9.9 mPa·s
343.15 K, 100 kPa	63.7 ± 2.6 mPa·s [middle of 4 runs]
343.15 K, 10000 kPa	70 ± 2.7 mPa·s
343.15 K, 21300 kPa	81 ± 2.8 mPa·s
343.15 K, 51800 kPa	112.7 ± 3.5 mPa·s
343.15 K, 72900 kPa	138.7 ± 4 mPa·s
343.15 K, 100300 kPa	182.6 ± 5 mPa·s
343.15 K, 125900 kPa	233.7 ± 6.2 mPa·s
343.15 K, 148800 kPa	296.2 ± 7.7 mPa·s
343.15 K, 175900 kPa	378.4 ± 9.7 mPa·s
353.15 K, 100 kPa	43 ± 2.3 mPa·s
